Source: patent US20050203086A1, “Methods of treatment using an EP2 selective receptor agonist” (Pfizer Inc., priority 2004, published 2005)

Molecular target: T1, prostaglandin E2 type 2 (EP2) receptors (Homo sapiens, UniProt P43116)
T1 construct: These full length receptors are used to prepare 293S cells expressing the EP1, EP2, EP3 and EP4 receptors; expressed in transfected cells; membranes
Assay: Assay for Binding to Prostaglandin E2 Receptors (3H-prostaglandin E2 displacement, membranes of transfected 293S cells)
Conditions: concentration displacing 50% of specifically bound 3H-prostaglandin E2, 1 hour at 25° C.
Method: Membrane Preparation: All operations are performed at […]. Transfected cells expressing prostaglandin E2 type 1 receptors (EP1), type 2 (EP2), type 3 (EP3) or type 4 (EP4) receptors are harvested and suspended to 2 million cells per ml in Buffer A [50 mM Tris-HCl (pH 7.4), 10 mM MgCl2, 1 mM EDTA, 1 mM Pefabloc peptide, (Boehringer Mannheim Corp., Indianapolis, Ind.), 10 uM Phosporamidon peptide, (Sigma, St. Louis, Mo.), 1 uM pepstatin A peptide, (Sigma, St. Louis, Mo.), 10 uM elastatinal peptide, (Sigma, St. Louis, Mo.), 100 uM antipain peptide, (Sigma, St. Louis, Mo.)]. The cells are lysed by sonification with a Branson Sonifier (Model #250, Branson Ultrasonics Corporation, Danbury, Conn.) in 2 fifteen second bursts. Unlysed cells and debris are removed by centrifugation, at 100×g for 10 min. Membranes are then harvested by centrifugation at 45,000×g for 30 minutes. […] Resuspended membranes are then stored frozen at −80° C. until use.
Binding Assay: Frozen membranes prepared as above are thawed and diluted to 1 mg protein per ml in Buffer A above. […] The membranes with bound ^3H-prostaglandin E2 are trapped by the filter, while the buffer and unbound ^3H-prostaglandin E2 pass through the filter into waste. Each sample is then washed 3 times with 3 ml of [50 mM Tris-HCl (pH 7.4), 10 mM MgCl2, 1 mM EDTA]. The filters are then dried by heating in a microwave oven.
Typically, PCR (polymerase chain reaction) primers corresponding to the 5′ and 3′ ends of the published full length receptor are made according to the well known methods disclosed above and are used in an RT-PCR reaction using the total RNA from human kidney (for EP1), human lung (for EP2), human lung (for EP3) or human lymphocytes (for EP4) as a source. PCR products are cloned by the TA overhang method into pCR2.1 (Invitrogen, Carlsbad, Calif.) and identity of the cloned receptor is confirmed by DNA sequencing.
Stable cell lines expressing the receptor are established following selection of transfected cells with G418.

T1 sequence (P43116 whole entry): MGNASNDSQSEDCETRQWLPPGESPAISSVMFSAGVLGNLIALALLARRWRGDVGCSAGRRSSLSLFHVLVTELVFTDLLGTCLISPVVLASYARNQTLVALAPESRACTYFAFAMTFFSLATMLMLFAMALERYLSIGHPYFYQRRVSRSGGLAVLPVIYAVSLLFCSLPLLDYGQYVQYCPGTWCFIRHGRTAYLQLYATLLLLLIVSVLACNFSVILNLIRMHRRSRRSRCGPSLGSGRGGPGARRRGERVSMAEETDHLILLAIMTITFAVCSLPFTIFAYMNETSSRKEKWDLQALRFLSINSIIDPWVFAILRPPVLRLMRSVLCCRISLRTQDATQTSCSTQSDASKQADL

Row | IC50 | Compound
1 | 140 nM | Cc1noc(C)c1S(=O)(=O)N(CCCc1cccc(Cl)c1)CCCc1ccc(C(=O)O)s1 [Example 6h, 5-(3-((3-(3-Chloro-phenyl)-propyl)-(3.5-dimethyl-isoxazole-4-sulfonyl)-amino)-propyl)-thiophene-2-carboxylic acid]
2 | 270 nM | COc1ccc(OC)c(S(=O)(=O)N(CCCc2cccc(Cl)c2)CCCc2ccc(C(=O)O)s2)c1 [Example 6i, 5-(3-((3-(3-Chloro-phenyl)-propyl)-(2,5-dimethoxy-benzenesulfonyl)-amino)-propyl)-thiophene-2-carboxylic acid]
3 | 375 nM | O=C(O)c1ccc(CCCN(CCCc2cccc(Cl)c2)S(=O)(=O)c2ccccc2F)s1 [Example 6j, 5-(3-((3-(3-Chloro-phenyl)-propyl)-(2-fluoro-benzenesulfonyl)-amino)-propyl)-thiophene-2-carboxylic acid]
4 | 400 nM | CC(C)NC(=O)N(CCCc1cccc(Cl)c1)CCCc1ccc(C(=O)O)s1 [Example 7a, 5-(3-(1-(3-(3-Chloro-phenyl)-propyl)-3-isopropyl-ureido)-propyl)-thiophene-2-carboxylic acid]
5 | 140 nM | O=C(O)c1ccc(CCCN(CCCc2cccc(Cl)c2)C(=O)Nc2ccccc2)s1 [Example 7b, 5-(3-(1-(3-(3-Chloro-phenyl)-propyl)-3-phenyl-ureido)-propyl)-thiophene-2-carboxylic acid]
6 | 260 nM | O=C(O)c1ccc(CCCN(CCCc2cccc(Cl)c2)C(=O)Nc2ccc(Cl)c(Cl)c2)s1 [Example 7c, 5-(3-(1-(3-(3-Chloro-phenyl)-propyl)-3-(3,4-dichloro-phenyl)-ureido)-propyl)-thiophene-2-carboxylic acid]
7 | 52 nM | CCCNC(=O)N(CCCc1cccc(Cl)c1)CCCc1ccc(C(=O)O)s1 [Example 7d, 5-(3-(1-(3-(3-Chloro-Phenyl)-propyl)-3-propyl-ureido)-propyl)-thiophene-2-carboxylic acid]
8 | 344 nM | O=C(O)c1ccc(CCCN(CCCc2cccc(Cl)c2)C(=O)Nc2cccc(Cl)c2Cl)s1 [Example 7f, 5-(3-(1-(3-(3-Chloro-phenyl)-propyl)-3-(2,3-dichloro-phenyl)-ureido)-propyl) thiophene-2-carboxylic acid]
9 | 412 nM | O=C(O)c1ccc(CCCN(CCCc2cccc(Cl)c2)C(=O)Nc2cc(Cl)cc(Cl)c2)s1 [Example 7g, 5-(3-(1-(3-(3-Chloro-phenyl)-propyl)-3-(3,5-dichloro-phenyl)-ureido)-propyl)-thiophene-2-carboxylic acid]
10 | 172 nM | O=C(O)c1ccc(CCCN(CCCc2cccc(Cl)c2)C(=O)Nc2c(F)cccc2F)s1 [Example 7h, 5-(3-(1-(3-(3-Chloro-phenyl)-propyl)-3-(2,6-difluoro-phenyl)-ureido)-propyl)-thiophene-2-carboxylic acid]
11 | 71 nM | O=C(O)c1ccc(CCCN(CCCc2cccc(Cl)c2)C(=O)N2CCCC2)s1 [Example 8, 5-(3-((3-(3-Chloro-phenyl)-propyl)-(Pyrrolidine-1-carbonyl)-amino)-propyl)-thiophene-2-carboxylic acid]
12 | 180 nM | O=C(O)c1ccc(CCCN(CCCc2cccc(Cl)c2)C(=O)N2CCOCC2)s1 [Example 8a, 5-(3-((3-(3-Chloro-phenyl)-Propyl)-(morpholine-4-carbonyl)-amino)-propyl)-thiophene-2-carboxylic acid]
13 | 266 nM | CC(C)OC(=O)N(CCCc1cccc(Cl)c1)CCCc1ccc(C(=O)O)s1 [Example 8b, 5-(3-((3-(3-Chloro-phenyl)-propyl)-isopropoxycarbonyl-amino)-propyl)-thiophene-2-carboxylic acid]
14 | 84.5 nM | CCCCc1ccc(CN(Cc2cccc(CC(=O)O)c2)S(=O)(=O)c2ccccc2)cc1 [Example 9a, (3-((Benzenesulfonyl-(4-butyl-benzyl)-amino)-methyl)-phenyl)-acetic acid]
15 | 94.5 nM | CCCCc1ccc(CN(Cc2cccc(CC(=O)O)c2)S(=O)(=O)c2cccs2)cc1 [Example 9b, (3-(((4-Butyl-benzyl)-(thiophene-2-sulfonyl)-amino)-methyl)-phenyl)-acetic acid]
16 | 490 nM | CCCCc1ccc(CN(Cc2cccc(CC(=O)O)c2)S(=O)(=O)c2ccc(NC(C)=O)cc2)cc1 [Example 9c, (3-(((4-Acetylamino-benzenesulfonyl)-(4-butyl-benzyl)-amino)-methyl)-phenyl)-acetic acid]
17 | 203 nM | CCCCc1ccc(CN(Cc2cccc(CC(=O)O)c2)S(=O)(=O)c2cccc3nonc23)cc1 [Example 9d, (3-(((Benzo[1,2,5]oxadiazole-4-sulfonyl)-(4-butyl-benzyl)-amino)-methyl)-phenyl)-acetic acid]

Row | Compound | IC50
18 | (3-(((4-Butyl-benzyl)-(pyridine-3-sulfonyl)-amino)-methyl)-phenyl)-acetic acid [Example 9] | 17 nM
